In paper PMC9029618, “Attenuation of Scopolamine-Induced Amnesia via Cholinergic Modulation in Mice by Synthetic Curcumin Analogs” (Molecules, 2022):
Like-named read-outs stand apart in the source and are kept apart here.

Columns and labels:
AChE = target: T1, AChE (Electrophorus electricus, UniProt O42275); assay: biochemical
T1 construct: The enzymes AChE and BuChE were obtained from electric eel and equine serum, respectively; from tissue; host or cells: electric eel
Protocol: (§1) The in vitro cholinesterase assay of the synthesized curcumin analogs were carried out according to the Ellman’s method with slight modification. The enzymes AChE and BuChE were obtained from electric eel and equine serum, respectively. […] The final concentrations of AChE 0.03 U/mL and 0.01 U/mL of BuChE were achieved. […] The experiment was started by adding 5 µL enzyme solutions to cuvette, then 205 µL test sample and 5 µL DTNB reagents were added. Substrate solution (5 µL) was added, and the solution mixture was kept in a water bath for 15 min at 30 °C.

BuChE = target: T2, BuChE (Equus caballus, UniProt P81908); assay: biochemical
T2 construct: The enzymes AChE and BuChE were obtained from electric eel and equine serum, respectively; from tissue; host or cells: equine serum
T2 sequence (P81908 whole entry): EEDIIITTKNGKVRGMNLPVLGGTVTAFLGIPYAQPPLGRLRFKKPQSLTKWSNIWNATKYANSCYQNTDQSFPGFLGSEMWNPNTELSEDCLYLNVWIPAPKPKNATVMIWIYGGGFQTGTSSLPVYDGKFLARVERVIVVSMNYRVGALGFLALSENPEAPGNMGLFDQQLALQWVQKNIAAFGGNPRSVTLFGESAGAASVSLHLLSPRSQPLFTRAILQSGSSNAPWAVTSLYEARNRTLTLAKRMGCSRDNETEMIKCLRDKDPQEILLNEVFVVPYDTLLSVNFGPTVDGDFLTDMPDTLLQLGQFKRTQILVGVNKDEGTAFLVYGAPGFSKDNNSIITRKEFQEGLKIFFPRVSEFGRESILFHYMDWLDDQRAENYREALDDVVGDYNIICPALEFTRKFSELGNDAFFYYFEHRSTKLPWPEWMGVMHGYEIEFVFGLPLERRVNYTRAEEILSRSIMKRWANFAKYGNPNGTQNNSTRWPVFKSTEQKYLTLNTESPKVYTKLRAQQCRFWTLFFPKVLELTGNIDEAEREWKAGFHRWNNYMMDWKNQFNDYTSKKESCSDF
Protocol: as §1

[1] = system: scopolamine-induced amnesic mice; assay: Elevated plus maze (EPM), scopolamine-induced amnesia; format: in vivo
Description: Elevated plus maze paradigm is an important behavioral model for evaluation of anti-amnesic potentials in mice. This apparatus comprised of two open and two closed arms with dimensions of 16 cm × 5 cm × 12 cm and elevated 25 cm from the floor on a wooden stand. The EPM was designed in plus shape from two acrylic sheets having a central platform with dimensions of 5 cm × 5 cm. Initially, mice were placed in one of the open arms in such a way that it was directed away from the central platform. Then TLT was recorded after the mice moved to the closed arm, with their four legs from the open arm and then the mice were returned to their home cage. The time of exploration of the apparatus for each animal was 90 s. […] Reduction of TLT indicated memory-enhancing effect of the test samples. The inflexion ratio (IR) was calculated as: IR=L0−L1/L0 where L1 presents the initial transfer latency (s), and L0 is the retention transfer latency (s).

[2] = system: scopolamine-induced amnesic mice; assay: Novel object recognition test (NORT), scopolamine-induced amnesia; format: in vivo
Protocol: In this study, the memory-enhancing potentials of synthesized compounds were determined using novel object recognition test mice model. Dimensions of the apparatus were 40 cm × 40 cm × 30 cm and designed from Plexiglass in a box shape. After acclimatization, the mice were habituated with the apparatus for 2–3 min one day before the test. Initially, in the sample phase, two identical objects were placed in the two corners of the apparatus and the mice were allowed to freely explore the apparatus. The objects in the apparatus were explored by each animal either by touching the objects or keeping their noses within 2 cm of them. […] Mice were allowed again to freely explore both the objects in a similar way as in sample phase, and the time spent by each animal exploring the novel and familiar object (F) was recorded.
The following formula was used for calculation of discrimination index. D1=N—F /N+F
D1 = discrimination index; N = novel object; F = familiar object

[3] = system: scopolamine-induced amnesic mice; assay: Y-maze test, scopolamine-induced amnesia
Protocol: A total of sixteen groups of mice, with six in each group, were used in the experiment. Vehicle treated group (Normal control group) were administered 10 mL/kg (p.o) of normal saline. […] Sample treatment groups were administered 7.5 mg/kg and 15 mg/kg (p.o) of synthesized compounds, respectively.
The dimensions of the arms were 15.5 cm high, 6 cm wide, 20 cm long and connected with each other with an angle of 120°. This test was conducted for a 5 min duration for each animal. The order and number of arm entries made by each animal after placing in one arm were recorded. Complete arm entry in any given arm was considered to be when the hind paws were completely inside, and the alternation was the consecutive arm entries into three different arms by each mouse. Ethanol 70% v/v solution was used to clean the Y-maze arena to avoid olfactory cues between each test. […] Mice were freely allowed to explore the objects when they were initially placed at the center of the apparatus. The formula was used to calculate the %SAP by recording the same arm returns (SAR), alternate arm returns (AAR) and the number of arm entries.

[4] = target: T3, AChE activity in the hippocampi of mice brains (Mus musculus, UniProt P21836); format: in vivo; details: ex vivo, vs scopolamine treated group, n = 6
T3 construct: from tissue; host or cells: mouse bilateral hippocampus homogenate, supernatant
T3 sequence (P21836 32-614): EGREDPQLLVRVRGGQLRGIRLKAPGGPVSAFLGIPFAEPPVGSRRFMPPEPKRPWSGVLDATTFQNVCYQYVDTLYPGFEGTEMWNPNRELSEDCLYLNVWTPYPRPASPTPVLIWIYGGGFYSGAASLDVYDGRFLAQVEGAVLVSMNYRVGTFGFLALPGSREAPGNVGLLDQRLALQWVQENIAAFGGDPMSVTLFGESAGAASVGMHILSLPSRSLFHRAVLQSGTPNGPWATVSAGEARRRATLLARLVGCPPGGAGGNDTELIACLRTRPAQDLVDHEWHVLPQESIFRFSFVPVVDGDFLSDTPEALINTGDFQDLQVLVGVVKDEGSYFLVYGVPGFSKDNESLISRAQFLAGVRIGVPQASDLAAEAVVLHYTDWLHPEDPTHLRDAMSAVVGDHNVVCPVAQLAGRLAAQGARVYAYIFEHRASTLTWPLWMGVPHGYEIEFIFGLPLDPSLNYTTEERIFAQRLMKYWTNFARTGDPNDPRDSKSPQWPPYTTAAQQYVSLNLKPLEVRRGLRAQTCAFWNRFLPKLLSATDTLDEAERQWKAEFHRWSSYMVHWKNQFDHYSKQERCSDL
Protocol: (§2) After the behavioral study, the mice were sacrificed by decapitation, providing a quick and painless death by cervical dislocation. The isolated brain of each animal in chilled phosphate buffer saline was subjected into biomarker assays using AChE and BuChE enzymes.
Mice were sacrificed within 24 h of the behavior study; brains were dissected and stored at −80 °C. […] Supernatant was used for the measurement of cholinesterase (AChE and BuChE) activity.
Acetylcholine/Acetyl cholinesterase assay Kit was used for the determination of AChE activity, according to the standard procedure. The assay was carried out using 96-well plate, and every reaction comprised of 100 µL sample, 200 µM Amplex Red reagent, 50 µM of acetylcholine, 1 U/mL horseradish peroxidase (HRP) and 0.1 U/mL choline oxidase in buffer solution. Incubation period for the reaction mixture was 20 min at room temperature in the dark. The fluorescence intensity at 560 nm excitation and 580 nm emission wavelength was measured.

[5] = target: T4, BuChE activity in the hippocampi of mice brains (Mus musculus, UniProt Q03311); assay: Ex vivo BuChE activity in the brain hippocampus; details: vs scopolamine treated group, n = 6
T4 construct: from tissue; host or cells: mouse bilateral hippocampus homogenate, supernatant
T4 sequence (Q03311 30-603): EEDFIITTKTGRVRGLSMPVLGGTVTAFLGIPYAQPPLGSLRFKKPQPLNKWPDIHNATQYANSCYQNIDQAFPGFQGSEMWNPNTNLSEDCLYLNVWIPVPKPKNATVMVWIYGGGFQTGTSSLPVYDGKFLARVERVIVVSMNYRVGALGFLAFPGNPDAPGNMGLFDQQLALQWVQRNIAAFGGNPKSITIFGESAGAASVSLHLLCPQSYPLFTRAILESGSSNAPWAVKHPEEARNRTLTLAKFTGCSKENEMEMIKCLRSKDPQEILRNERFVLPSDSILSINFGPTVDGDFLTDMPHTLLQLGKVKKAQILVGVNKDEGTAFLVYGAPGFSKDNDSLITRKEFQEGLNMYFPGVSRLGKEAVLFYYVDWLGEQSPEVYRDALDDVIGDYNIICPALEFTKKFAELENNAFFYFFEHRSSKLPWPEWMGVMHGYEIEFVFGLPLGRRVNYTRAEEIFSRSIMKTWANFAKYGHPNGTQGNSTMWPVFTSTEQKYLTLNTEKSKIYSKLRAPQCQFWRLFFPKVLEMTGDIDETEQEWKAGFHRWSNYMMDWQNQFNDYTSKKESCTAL
Protocol: as §2
Mice were sacrificed within 24 h of the behavior study; brains were dissected and stored at −80 °C. The bilateral hippocampus was homogenized before the assay into volumes of 0.01 M phosphate buffer (2.7 mM KCl, 137 mM NaCl, 2 mM KH2PO4, 10 mM Na2HPO4) and centrifuged at 4 °C for 30 min at 12,000× g. Supernatant was used for the measurement of cholinesterase (AChE and BuChE) activity.
Butyrylcholinesterase (BuChE) activity of the synthesized compounds were measured according to Ellman method with slight modification. BuSCh was hydrolyzed by BuChE and choline iodide produced, which reacted with DNTB, and then the production of TNB. The TNB was quantitated by calorimetry that indicated the BuChE activity. BuChE assay was accomplished in 96-well plate and every reaction mixture contained 40 µL sample, 80 µL DTNB (0.25 mg/mL) and 70 µL BuSCh (7.5 mM). The absorbance was determined at 37 °C after incubation for 60 min.

[6] = AChE from electric eel, Ellman's method, n = 3, read-out: AChEI (IC50 (nM))
[7] = BuChE from equine serum, Ellman's method, n = 3, read-out: BuChEI (IC50 (nM))
[8] = 7.5 mg/kg p.o. 7 days, scopolamine 1 mg/kg i.p.
[9] = 15 mg/kg p.o. 7 days, scopolamine 1 mg/kg i.p.
[10] = long-term memory (after 24 h), 7.5 mg/kg
[11] = long-term memory (after 24 h), 15 mg/kg
[12] = short-term memory, donepezil 2 mg/kg
[13] = short-term memory, test phase, donepezil 2 mg/kg

T1 sequence (O42275 24-633): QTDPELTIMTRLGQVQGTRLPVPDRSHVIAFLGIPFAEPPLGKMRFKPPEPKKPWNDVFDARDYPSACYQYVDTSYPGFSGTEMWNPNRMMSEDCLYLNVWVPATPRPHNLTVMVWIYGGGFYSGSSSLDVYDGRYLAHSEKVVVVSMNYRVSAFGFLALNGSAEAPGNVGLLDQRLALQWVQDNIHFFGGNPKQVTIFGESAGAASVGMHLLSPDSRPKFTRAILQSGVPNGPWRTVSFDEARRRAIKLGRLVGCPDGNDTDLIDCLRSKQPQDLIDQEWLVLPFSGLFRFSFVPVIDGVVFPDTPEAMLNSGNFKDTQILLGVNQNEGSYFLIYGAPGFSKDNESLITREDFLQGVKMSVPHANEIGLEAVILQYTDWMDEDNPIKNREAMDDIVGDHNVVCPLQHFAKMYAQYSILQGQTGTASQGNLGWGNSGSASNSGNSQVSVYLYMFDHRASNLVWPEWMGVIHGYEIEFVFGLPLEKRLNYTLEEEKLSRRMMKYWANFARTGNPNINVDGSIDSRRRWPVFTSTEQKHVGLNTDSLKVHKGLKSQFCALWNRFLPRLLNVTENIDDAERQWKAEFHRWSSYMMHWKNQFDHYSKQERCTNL

SMILES | IC50 (AChE; [6]) [nM] | IC50 (BuChE; [7]) [nM] | effect on TLT vs amnesic group [1, 8] | effect on TLT vs amnesic group [1, 9] | discrimination index (DI) [2, 10] | discrimination index (DI) [2, 11] | discrimination index (DI) ([2]; short-term memory, 7.5 mg/kg) | discrimination index (DI) ([2]; short-term memory, 15 mg/kg) | % spontaneous alternation performance (% SAP) [3, 8] | % spontaneous alternation performance (% SAP) [3, 9] | effect on scopolamine-increased AChE activity in hippocampus [4] | further results
O=C(/C=C/c1ccccc1)CC(=O)/C=C/c1ccccc1 [Compound 1a, (1E,6E)-1,7-diphenylhepta-1,6-diene-3,5-dione] | 2620 | 5350 | non-significant | non-significant | no significant change | no significant change | 54.53% | 55.10% | poor response | poor response |  | 
Cc1ccc(/C=C/C(=O)CC(=O)/C=C/c2ccc(C)cc2)cc1 [Compound 1b, (1E,6E)-1,7-di-p-tolylhepta-1,6-diene-3,5-dione] | 734 | 2160 | non-significant | poor response | 52.45% | 53.61% | 55.68% | 57.47% | poor response | poor response | markedly reduced the increased activity of AChE | 
COc1ccc(/C=C/C(=O)CC(=O)/C=C/c2ccc(OC)cc2)cc1 [Compound 1c, (1E,6E)-1,7-bis(4-methoxyphenyl)hepta-1,6-diene-3,5-dione] | 467 | 1360 | reduced TLT | reduced TLT | 60.58% | 62.28% | 60.16% | 61.25% | 47.16 ± 2.77% | 62.33 ± 184% | markedly reduced the increased activity of AChE | effect on scopolamine-increased BuChE activity in hippocampus [5]: decreased the increased BuChE activity
O=C(/C=C/c1ccc(Cl)cc1)CC(=O)/C=C/c1ccc(Cl)cc1 [Compound 1d, (1E,6E)-1,7-bis(4-chlorophenyl)hepta-1,6-diene-3,5-dione] | 113 | 378 | significantly reduced TLT | significantly reduced TLT | 63.78% | 64.61% | 61.43% | 62.03% | 55.66 ± 2.82% | 67.66 ± 2.84% | markedly reduced the increased activity of AChE | effect on scopolamine-increased BuChE activity in hippocampus [5]: decreased the increased BuChE activity
CN(C)c1ccc(/C=C/C(=O)CC(=O)/C=C/c2ccc(N(C)C)cc2)cc1 [Compound 1e, (1E,6E)-1,7-bis(4-(dimethylamino)phenyl)hepta-1,6-diene-3,5-dione] | 3270 | 6640 | non-significant | non-significant | no significant change | no significant change | no promising potential | no promising potential | non-significant | non-significant |  | 
O=C(/C=C/c1ccc([N+](=O)[O-])cc1)CC(=O)/C=C/c1ccc([N+](=O)[O-])cc1 [Compound 1f, (1E,6E)-1,7-bis(4-nitrophenyl)hepta-1,6-diene-3,5-dione] |  |  | non-significant | non-significant | no significant change | no significant change | no promising potential | no promising potential | non-significant | non-significant |  | IC50 (AChE): 5840 nM; IC50 (BuChE): 9660 nM
COc1cc2c(cc1OC)C(=O)C(CC1CCN(Cc3ccccc3)CC1)C2 (stereo not drawn) [Donepezil, reference compound] |  |  |  |  |  |  |  |  |  |  |  | transfer latency time (TLT) ([1]; donepezil 2 mg/kg p.o. 7 days, scopolamine 1 mg/kg i.p., p < 0.001 vs amnesic group): 34.57 ± 1.93 s; % DI, familiar object [2, 12]: 32.32%; % DI, novel object [2, 12]: 65.26%; time spent exploring the familiar object [2, 13]: 11.49 ± 1.39 s; time spent exploring the novel object [2, 13]: 21.59 ± 1.44 s
CN1[C@@H]2C[C@@H](OC(=O)[C@H](CO)c3ccccc3)C[C@H]1[C@@H]1O[C@@H]12 [Scopolamine] |  |  |  |  |  |  |  |  |  |  |  | TLT vs vehicle treated group ([1]; scopolamine 1 mg/kg i.p. alone (amnesic group)): significantly higher transfer latency time; % spontaneous alternation performance (% SAP) ([3]; scopolamine 1 mg/kg i.p. alone (amnesic group), normal controls 70.16 ± 4.58): 37.66 ± 3.94%
